Reference: ChEMBL document CHEMBL3400005, “Thermodynamic equilibrium solubility measurements in simulated fluids by 96-well plate method in early drug discovery” (Bioorg Med Chem Lett, 2015)
In brackets after ≈: the same amount, converted by molar mass.

Key:
physchem [1] = details: pH 7.4
physchem [2] = assay: physchem
physchem [3] = details: pH 1.2
physchem [4] = details: pH 6.8
physchem [5] = details: pH 7.4; remark: listed apart in the source
physchem [6] = details: pH 6.8; remark: listed apart in the source
physchem [7] = assay: physchem; remark: listed apart in the source
physchem [8] = details: pH 1.2; remark: listed apart in the source
physchem [9] = assay: physchem; remark: listed apart in the source

Structure (SMILES) | solubility thermodynamic at 4 h (physchem [1]; PBS) | solubility thermodynamic at 4 h (physchem [2]; water) | solubility thermodynamic at 4 h (physchem [3]; simulated gastric fluid) | solubility thermodynamic at 4 h (physchem [4]; simulated intestinal fluid) | also measured
NC(=O)c1cnccn1 [PYRAZINAMIDE] | 5370 µM (≈ 661 µg/mL) | 5750 µM (≈ 708 µg/mL) | 5620 µM (≈ 692 µg/mL) | 7940 µM (≈ 978 µg/mL) | –
OC(Cn1cncn1)(Cn1cncn1)c1ccc(F)cc1F [FLUCONAZOLE] | 0.324 µM (≈ 0.0991 µg/mL) | 0.324 µM (≈ 0.0991 µg/mL) | 1.62 µM (≈ 0.497 µg/mL) | 0.324 µM (≈ 0.0991 µg/mL) | solubility thermodynamic at 24 h (physchem [5]; PBS): 0.468 µM (≈ 0.143 µg/mL); solubility thermodynamic at 24 h (physchem [6]; simulated intestinal fluid): 0.891 µM (≈ 0.273 µg/mL); solubility thermodynamic at 24 h (physchem [7]; water): 0.537 µM (≈ 0.164 µg/mL); solubility thermodynamic at 24 h (physchem [8]; simulated gastric fluid): 0.851 µM (≈ 0.261 µg/mL); solubility thermodynamic (physchem [9]): 0.331 µM (≈ 0.101 µg/mL)
O=c1c2cc(O)c(O)cc2oc2cc(O)c([C@@H]3O[C@H](CO)[C@@H](O)[C@H](O)[C@H]3O)c(O)c12 [MANGIFERIN] | 47.9 µM (≈ 20.2 µg/mL) | 47.9 µM (≈ 20.2 µg/mL) | 19.1 µM (≈ 8.05 µg/mL) | 19.1 µM (≈ 8.05 µg/mL) | –
CCCc1nc2c(C)cc(-c3nc4ccccc4n3C)cc2n1Cc1ccc(-c2ccccc2C(=O)O)cc1 | 7.76 µM (≈ 3.99 µg/mL) | 3.89 µM (≈ 2 µg/mL) | 38.9 µM (≈ 20 µg/mL) | 1.95 µM (≈ 1 µg/mL) | solubility thermodynamic at 24 h (physchem [5]; PBS): 6.46 µM (≈ 3.32 µg/mL); solubility thermodynamic at 24 h (physchem [6]; simulated intestinal fluid): 2.29 µM (≈ 1.18 µg/mL); solubility thermodynamic at 24 h (physchem [7]; water): 29.5 µM (≈ 15.2 µg/mL); solubility thermodynamic at 24 h (physchem [8]; simulated gastric fluid): 40.7 µM (≈ 21 µg/mL)
C=C(C)[C@@H](CC=C(C)C)C[C@@]12C[C@@H](CC=C(C)C)C(C)(C)[C@@](CC=C(C)C)(C(=O)C(C(=O)c3ccc(O)c(O)c3)=C1O)C2=O [GARCINOL] | 1.66 µM (≈ 1 µg/mL) | 1.66 µM (≈ 1 µg/mL) | 0.832 µM (≈ 0.501 µg/mL) | 6.61 µM (≈ 3.98 µg/mL) | –
COc1c2occc2c(OC)c2c(=O)cc(C)oc12 [KHELLIN] | 77.6 µM (≈ 20.2 µg/mL) | 77.6 µM (≈ 20.2 µg/mL) | 30.9 µM (≈ 8.04 µg/mL) | 30.9 µM (≈ 8.04 µg/mL) | solubility thermodynamic at 24 h (physchem [5]; PBS): 72.4 µM (≈ 18.9 µg/mL); solubility thermodynamic at 24 h (physchem [6]; simulated intestinal fluid): 58.9 µM (≈ 15.3 µg/mL); solubility thermodynamic at 24 h (physchem [7]; water): 100 µM (≈ 26 µg/mL); solubility thermodynamic at 24 h (physchem [8]; simulated gastric fluid): 97.7 µM (≈ 25.4 µg/mL); solubility thermodynamic (physchem [9]): 97.7 µM (≈ 25.4 µg/mL)
COc1ccc2cc3[n+](cc2c1OC)CCc1cc2c(cc1-3)OCO2.[Cl-] [BERBERINE CHLORIDE] | 21.4 µM | 214 µM | 33.9 µM | 398 µM | solubility thermodynamic (physchem [9]): 537 µM
CC[C@H]1OC(=O)[C@H](C)[C@@H](O[C@H]2C[C@@](C)(OC)[C@@H](O)[C@H](C)O2)[C@H](C)[C@@H](O[C@@H]2O[C@H](C)C[C@H](N(C)C)[C@H]2O)[C@](C)(O)C[C@@H](C)/C(=N\OCOCCOC)[C@H](C)[C@@H](O)[C@]1(C)O [ROXITHROMYCIN] | 1.2 µM (≈ 1.01 µg/mL) | 0.603 µM (≈ 0.504 µg/mL) | 0.603 µM (≈ 0.504 µg/mL) | 0.603 µM (≈ 0.504 µg/mL) | –
CC(C(=O)[O-])c1ccc(-c2ccccc2)c(F)c1.[Na+] (stereo not given) | 162 µM | 331 µM | 33.1 µM | 4.07 µM | –
CC(/C=C/C=C(\C)C(=O)O[C@@H]1O[C@H](CO[C@@H]2O[C@H](CO)[C@@H](O)[C@H](O)[C@H]2O)[C@@H](O)[C@H](O)[C@H]1O)=C\C=C\C=C(C)\C=C\C=C(/C)C(=O)O[C@@H]1O[C@H](CO[C@@H]2O[C@H](CO)[C@@H](O)[C@H](O)[C@H]2O)[C@@H](O)[C@H](O)[C@H]1O [CROCIN] | 155 µM (≈ 151 µg/mL) | 155 µM (≈ 151 µg/mL) | 155 µM (≈ 151 µg/mL) | 155 µM (≈ 151 µg/mL) | –
CC(C)=CC[C@H]1C[C@@]23C[C@@H](CC=C(C)C)C(C)(C)[C@@](CC=C(C)C)(C(=O)C(C(=O)c4ccc(O)c(O)c4)=C2OC1(C)C)C3=O [CAMBOGIN] | 0.851 µM (≈ 0.513 µg/mL) | 0.851 µM (≈ 0.513 µg/mL) | 0.851 µM (≈ 0.513 µg/mL) | 0.851 µM (≈ 0.513 µg/mL) | –
CN(C/C=C/C#CC(C)(C)C)Cc1cccc2ccccc12.Cl [TERBINAFINE HYDROCHLORIDE] | 0.302 µM | 245 µM | 245 µM | 1.51 µM | solubility thermodynamic at 24 h (physchem [5]; PBS): 0.676 µM; solubility thermodynamic at 24 h (physchem [6]; simulated intestinal fluid): 0.617 µM; solubility thermodynamic at 24 h (physchem [7]; water): 229 µM; solubility thermodynamic at 24 h (physchem [8]; simulated gastric fluid): 155 µM
Cc1cnc(NC(=O)C2=C(O)c3ccccc3S(=O)(=O)N2C)s1 [MELOXICAM] | – | – | – | – | solubility thermodynamic at 4 h (physchem [1]; buffer): 35.5 µM (≈ 12.5 µg/mL); solubility thermodynamic at 24 h (physchem [5]; buffer): 21.9 µM (≈ 7.69 µg/mL); solubility thermodynamic at 24 h (physchem [6]; simulated gi fluid): 28.8 µM (≈ 10.1 µg/mL); solubility thermodynamic at 4 h (physchem [2]; buffer): 11.5 µM (≈ 4.03 µg/mL); solubility thermodynamic at 24 h (physchem [7]; buffer): 11 µM (≈ 3.85 µg/mL); solubility thermodynamic at 4 h (physchem [3]; simulated gi fluid): 1.41 µM (≈ 0.496 µg/mL); solubility thermodynamic at 4 h (physchem [4]; simulated gi fluid): 22.9 µM (≈ 8.05 µg/mL); solubility thermodynamic at 24 h (physchem [8]; simulated gi fluid): 0.0407 µM (≈ 0.0143 µg/mL); solubility thermodynamic (physchem [9]): 2.29 µM (≈ 0.805 µg/mL)
NNC(=O)c1ccncc1 [ISONIAZID] | 589 µM (≈ 80.8 µg/mL) | 589 µM (≈ 80.8 µg/mL) | 589 µM (≈ 80.8 µg/mL) | 288 µM (≈ 39.6 µg/mL) | –
